Reference: US20240261417A1, “SOS1 DEGRADING AGENT AND PREPARATION METHOD THEREFOR AND APPLICATION THEREOF” (SHANGHAI LEADINGTAC PHARMACEUTICAL CO. LTD., priority 2021, published 2024)

Tests used:
[1] = system: KRAS G12C mutant human non-small cell lung cancer cells NCI-H358; assay: 3D cell proliferation inhibition assay, NCI-H358; type: cell-based; conditions: 7 days, CTG
Procedure: (§1) Inhibition of 3D cell proliferation by the compounds was investigated on KRAS G12C mutant human non-small cell lung cancer cells NCI-H358 (ATCC or Stem Cell Bank, Chinese Academy of Sciences), KRAS G12D mutant human metastatic pancreatic adenocarcinoma cells AsPC-1 (ATCC), KRAS G12V mutant human lung adenocarcinoma cells NCI-H441 (ATCC), and KRAS G13D mutant human colorectal adenocarcinoma epithelial cells DLD-1 (ATCC). The specific procedures were as follows:
(§2) 200 nL of compound solution diluted in a gradient was added to corresponding microwells of a 384-well low-adsorption microwell plate (Corning, 3657) using an Echo sonic pipetting system (Labcyte, Echo 550), so that the final concentration of the test compound in the reaction system was in a range of 20000 nM-0.008 nM. Then 40 μL of cells at a certain density were added to the corresponding microplate. In addition to test wells for the test compounds, both a DMSO control well and a medium control well were set, with the DMSO control well containing DMSO and cells and the medium well containing only medium. After sample loading, the plate cover was applied, and the 384-well low-adsorption microplate was incubated in an incubator at 37° C. with 5% carbon dioxide for 7 days. After 7 days, the microplate was taken out, and 40 μL of CTG reagent (Promega, G9683) was added to each well. The plate was incubated at room temperature for 30 min and read on a microplate reader EnVision using the chemiluminescence program. The inhibition rates of the compounds at each concentration were calculated by the formula for the percentage inhibition of cell proliferation: inhibition rate %=(mean value of DMSO control group−single concentration reading value of compound)/(mean value of DMSO control group−mean value of medium control group)×100, and then nonlinear curve fitting was performed by GraphPad Prism 8 in the logarithmic concentration-inhibition rate to obtain the IC50 values of the compounds.

[2] = system: KRAS G13D mutant human colorectal adenocarcinoma epithelial cells DLD-1; assay: 3D cell proliferation inhibition assay, DLD-1; type: cell-based; conditions: 7 days, CTG
Procedure: as §1, §2

[3] = system: KRAS G12D mutant human metastatic pancreatic adenocarcinoma cells AsPC-1; assay: 3D cell proliferation inhibition assay, AsPC-1; type: cell-based; conditions: 7 days, CTG
Procedure: as §1, §2

[4] = system: KRAS G12V mutant human lung adenocarcinoma cells NCI-H441; assay: 3D cell proliferation inhibition assay, NCI-H441; type: cell-based; conditions: 7 days, CTG
Procedure: as §1, §2

SOS1 protein = molecular target: T1, SOS1 protein (Homo sapiens, UniProt Q07889); assay: SOS1 degradation assay (Western blot), NCI-H358 cells; type: cell-based; parameters: The degradation of SOS1 by the compounds was investigated on KRAS G12C mutant human non-small cell lung cancer cells NCI-H358; host or cells: NCI-H358 (human cancer cell lines); conditions: SOS1 degradation, NCI-H358 cells, 24 h, Western blot; for DC50: read-out: NCI-H358 (G12C) DC50; for Dmax: read-out: NCI-H358 (G12C) Dmax
T1 sequence (Q07889 1-1333): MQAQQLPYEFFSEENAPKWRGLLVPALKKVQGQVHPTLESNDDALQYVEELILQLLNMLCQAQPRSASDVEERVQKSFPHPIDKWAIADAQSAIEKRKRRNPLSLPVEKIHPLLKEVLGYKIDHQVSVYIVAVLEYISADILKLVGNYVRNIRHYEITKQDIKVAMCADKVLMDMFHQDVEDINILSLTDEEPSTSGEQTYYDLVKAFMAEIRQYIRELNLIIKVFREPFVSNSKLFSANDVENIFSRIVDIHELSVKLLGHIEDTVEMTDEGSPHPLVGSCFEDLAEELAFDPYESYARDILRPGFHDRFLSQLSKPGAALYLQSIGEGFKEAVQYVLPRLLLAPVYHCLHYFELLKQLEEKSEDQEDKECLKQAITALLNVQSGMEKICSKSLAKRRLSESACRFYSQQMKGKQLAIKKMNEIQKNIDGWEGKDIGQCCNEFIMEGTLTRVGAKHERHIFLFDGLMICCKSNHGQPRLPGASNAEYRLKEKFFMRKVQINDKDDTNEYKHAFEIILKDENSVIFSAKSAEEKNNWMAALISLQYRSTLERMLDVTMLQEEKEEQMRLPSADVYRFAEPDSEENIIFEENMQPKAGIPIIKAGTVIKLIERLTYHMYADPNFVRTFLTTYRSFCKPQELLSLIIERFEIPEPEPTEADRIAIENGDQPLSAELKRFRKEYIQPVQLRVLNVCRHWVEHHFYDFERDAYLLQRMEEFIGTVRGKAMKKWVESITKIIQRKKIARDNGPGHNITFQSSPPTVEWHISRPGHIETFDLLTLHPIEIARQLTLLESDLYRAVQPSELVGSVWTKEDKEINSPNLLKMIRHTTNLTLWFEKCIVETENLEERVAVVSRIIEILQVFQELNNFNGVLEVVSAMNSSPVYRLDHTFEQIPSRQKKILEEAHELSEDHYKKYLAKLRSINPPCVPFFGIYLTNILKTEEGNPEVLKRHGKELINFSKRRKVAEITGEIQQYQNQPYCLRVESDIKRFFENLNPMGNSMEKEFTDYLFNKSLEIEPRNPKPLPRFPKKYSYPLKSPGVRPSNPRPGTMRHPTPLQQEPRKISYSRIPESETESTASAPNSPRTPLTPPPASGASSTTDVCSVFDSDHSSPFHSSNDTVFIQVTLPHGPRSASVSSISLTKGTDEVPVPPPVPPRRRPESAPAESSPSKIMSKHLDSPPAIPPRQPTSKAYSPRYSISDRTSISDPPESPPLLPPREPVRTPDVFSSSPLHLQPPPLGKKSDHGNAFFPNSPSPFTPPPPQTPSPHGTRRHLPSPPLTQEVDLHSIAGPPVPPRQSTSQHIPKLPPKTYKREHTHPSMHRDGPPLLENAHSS
Outline: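 SOS1 degradation was assessed by densitometry of Western blots, relative to untreated controls, after 24 h compound exposure (0.03–3000 nM final, 37 °C, 5% CO2) of cells seeded at 5×10^5/well. Log concentration–response fitting gave DC50 and Dmax.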

KRAS-G12C/SOS1 = molecular target: T2, KRAS-G12C/SOS1 (Homo sapiens, UniProt Q07889); assay: KRAS-G12C/SOS1 binding assay (HTRF); conditions: inhibition of KRAS-G12C/SOS1 binding
T2 construct: purchased Cisbio 63ADKOOOCB16PEG
T2 sequence (Q07889 1-1333): T1 sequence (Q07889 1-1333)
Outline: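 HTRF competition assay with Tag1-SOS1 and Tag2-KRAS-G12C (10 μM GTP). Compounds at 10000 nM-0.04 nM final (0.5% DMSO), incubated 15 min at 25° C, then anti-tag Tb3+/XL665 antibodies added for 3 h on ice. The 665/620 nm ratio was compared with control and IC50 derived by nonlinear fit.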

SMILES	IC50 [1] [nM]	IC50 [2] [nM]	IC50 [3] [nM]	IC50 [4] [nM]	DC50 (SOS1 protein) [nM]	Dmax (SOS1 protein) [%]	IC50 (KRAS-G12C/SOS1) [nM]
COc1cc2nc(C)nc(N[C@H](C)c3cc(N)cc(C(F)(F)F)c3)c2cc1C1CCC(C(=O)N2CCN(CC3CCC4(CC3)CCN(C(=O)c3ccc(OC)c(N5CCC(=O)NC5=O)c3)CC4)CC2)CC1 (stereo partly drawn) [Example 20, 1-(5-(9-((4-((1R,4R)-4-(4-(((R)-1-(3-amino-5-(trifluoromethyl)phenyl)ethyl)amino)-7-methoxy-2-methylquinazolin-6-yl)cyclohexane-1-carbonyl)piperazin-1-yl)methyl)-3-azaspiro[5.5]undecane-3-carbonyl)-2-methoxyphenyl)dihydropyrimidine-2,4(1H,3H)-dione]	≤ 15	15 to 30	50 to 100	≤ 15			
COc1cc2nc(C)nc(N[C@H](C)c3cc(N)cc(C(F)(F)F)c3)c2cc1[C@H]1CC[C@H](C(=O)N2CCN(CCCOC3CCN(C(=O)c4ccc(Cl)c(N5CCC(=O)NC5=O)c4)CC3)CC2)CC1 [Example 28, 1-(5-(4-(3-(4-((1R,4R)-4-(4-(((R)-1-(3-amino-5-(trifluoromethyl)phenyl)ethyl)amino)-7-methoxy-2-methylquinazolin-6-yl)cyclohexane-1-carbonyl)piperazin-1-yl)propoxy)piperidine-1-carbonyl)-2-chlorophenyl)dihydropyrimidine-2,4(1H,3H)-dione]					< 50	50 to 80	≤ 15
COc1cc2nc(C)nc(N[C@H](C)c3cc(-c4c(Cl)cccc4CN(C)C)cs3)c2cc1[C@H]1CC[C@H](C(=O)N2CCN(CCOCC3CCN(C(=O)c4ccc(Cl)c(N5CCC(=O)NC5=O)c4)CC3)CC2)CC1 [Example 67, 1-(2-chloro-5-(4-((2-(4-((1R,4R)-4-(4-(((R)-1-(4-(2-chloro-6-((dimethylamino)methyl)phenyl)thien-2-yl)ethyl)amino)-7-methoxy-2-methylquinazolin-6-yl)cyclohexane-1-carbonyl)piperazin-1-yl)ethoxy)methyl)piperidine-1-carbonyl)phenyl)dihydropyrimidine-2,4(1H,3H)-dione]					< 50	80 to 100	≤ 15

Now from value to molecule:

IC50 [1] [nM]	IC50 [2] [nM]	IC50 [3] [nM]	IC50 [4] [nM]	DC50 (SOS1 protein) [nM]	Dmax (SOS1 protein) [%]	IC50 (KRAS-G12C/SOS1) [nM]	SMILES
				< 50	50 to 80	≤ 15	CNCc1cccc(Cl)c1-c1csc([C@@H](C)Nc2nc(C)nc3cc(OC)c([C@H]4CC[C@H](C(=O)N5CCC(CCOCC6CCN(C(=O)c7ccc(Cl)c(N8CCC(=O)NC8=O)c7)CC6)CC5)CC4)cc23)c1 [Example 69, 1-(2-chloro-5-(4-((2-(1-((1R,4R)-4-(4-(((R)-1-(4-(2-chloro-6-((methylamino)methyl)phenyl)thien-2-yl)ethyl)amino)-7-methoxy-2-methylquinazolin-6-yl)cyclohexane-1-carbonyl)piperidin-4-yl)ethoxy)methyl)piperidine-1-carbonyl)phenyl)dihydropyrimidine-2,4(1H,3H)-dione]
				< 50	50 to 80	≤ 15	COc1cc2nc(C)nc(N[C@H](C)c3cc(-c4c(Cl)cccc4CN(C)C)cs3)c2cc1[C@H]1CC[C@H](C(=O)N2CCN(CC3CCC4(CC3)CCN(C(=O)c3ccc(F)c(N5CCC(=O)NC5=O)c3)CC4)CC2)CC1 [Example 60, 1-(5-(9-((4-((1R,4R)-4-(4-(((R)-1-(4-(2-chloro-6-((dimethylamino)methyl)phenyl)thien-2-yl)ethyl)amino)-7-methoxy-2-methylquinazolin-6-yl)cyclohexane-1-carbonyl)piperazin-1-yl)methyl)-3-azaspiro[5.5]undecane-3-carbonyl)-2-fluorophenyl)dihydropyrimidine-2,4(1H,3H)-dione]
